Assays:
[1] = system: primary human hepatocytes in micropatterned co-cultures (MPCCs)
3T3-J2 fibroblasts = assay: Fibroblast density in MPCCs, live cell imaging of nuclei (Hoechst 33342); format: cell-based, murine; settings: metformin treated MPCCs, 4 weeks of culture
[2] = system: primary human hepatocytes in micropatterned co-cultures (MPCCs); assay: Hepatocyte island area (phase contrast) and polarization (CDCFDA bile canaliculi staining) in MPCCs; format: cell-based; settings: metformin treated versus non-starved control MPCCs

| Structure (SMILES) | TC50 values for albumin production, non-starved cells compared with starved cells [1] | TC50 values for urea production, non-starved cells compared with starved cells [1] | identified as toxic (albumin or urea below 50% of DMSO control) [1] | also measured |
| --- | --- | --- | --- | --- |
| Cc1c(C)c2c(c(C)c1O)CCC(C)(COc1ccc(CC3SC(=O)NC3=O)cc1)O2 (stereo not drawn) [troglitazone] | similar | similar | – | – |
| Clc1ccc(COC(Cn2ccnc2)c2ccc(Cl)cc2Cl)c(Cl)c1 (stereo not drawn) [miconazole] | – | – | toxic | – |
| CN1C(C(=O)Nc2ccccn2)=C(O)c2ccccc2S1(=O)=O [piroxicam] | similar | similar | – | – |
| CN(C)C(=N)N=C(N)N [metformin] | – | – | – | fibroblast numbers (3T3-J2 fibroblasts): did not change; hepatocyte island area [2]: not significantly higher; hepatocyte polarization [2]: not significantly higher |
| C[C@]12C=CC(=O)C=C1CC[C@@H]1[C@@H]2C(=O)C[C@@]2(C)[C@H]1CC[C@]2(O)C(=O)CO [prednisone] | – | – | toxic | – |
